Data as given in patent US8263597B2, “Indazole compounds as CCR1 receptor antagonists” (Boehringer Ingelheim International GmbH, priority 2008, dated 2012).

What follows are compounds tested against T1, CCR1 (Homo sapiens, UniProt P32246) (assay: Calcium flux in response to MIP-1 alpha in CCR1-transfected cells, Method A (Fluo-4 NW, FLIPR TETRA)). Conditions: cells stably expressing recombinant CCR1 and G-alpha-16; MIP-1 alpha at EC80; 1 hour incubation at room temperature.
T1 sequence (P32246 1-355): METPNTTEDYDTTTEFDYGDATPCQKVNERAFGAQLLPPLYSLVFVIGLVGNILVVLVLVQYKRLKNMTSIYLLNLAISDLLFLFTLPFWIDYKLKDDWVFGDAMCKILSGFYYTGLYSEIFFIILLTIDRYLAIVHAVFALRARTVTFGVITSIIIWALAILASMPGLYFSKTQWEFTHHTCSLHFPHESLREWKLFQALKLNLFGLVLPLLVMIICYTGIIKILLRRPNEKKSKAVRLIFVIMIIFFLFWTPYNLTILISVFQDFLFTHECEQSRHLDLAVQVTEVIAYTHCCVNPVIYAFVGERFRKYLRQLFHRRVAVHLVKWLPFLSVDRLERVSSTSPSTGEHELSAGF
Type: cell-based
Procedure: (§1) Compounds are assessed for the ability to block the interaction of CCR1 and its ligand in a functional cellular assay measuring calcium flux in response to MIP-1α in CCR1-transfected cells.
On the day of the assay, the cells are transferred to a beaker and dye-loaded in bulk using a Fluo-4 NW Calcium Assay Kit with probenecid (Invitrogen F36205) at 0.8E6 cells/mL for 1 hour at room temperature. After 1 hour, they are seeded in a 384-well tissue culture-treated plate at a density of 20,000 cells/well. Appropriately diluted test compound is added to the well to achieve a top concentration of 3,000 nM (diluted 3-fold with 10 doses total). The final concentration of DMSO is 1%. […] The cells are allowed to incubate 1 hour in the dark at room temperature. The plates are transferred to the FLIPR TETRA where MIP-1 alpha in 1% BSA is added at the EC80 final concentration. Wells +/−MIP-1 alpha containing diluted DMSO instead of compound serve as the controls.

IC50 [nM] | Structure (SMILES)
6.7 | CS(=O)(=O)c1ccc(CNC(=O)c2cccc3c2cnn3-c2ccc(F)cc2)c(Cl)c1 [1-(4-Fluoro-phenyl)-1H-indazole-4-carboxylic acid 2-chloro-4-methanesulfonyl-benzylamide]
4 | CNS(=O)(=O)c1ccc(CNC(=O)c2cccc3c2cnn3-c2ccc(F)cc2)c(Cl)c1 [1-(4-Fluoro-phenyl)-1H-indazole-4-carboxylic acid 2-chloro-4-methylsulfamoyl-benzylamide]
5.4 | CNS(=O)(=O)c1ccc(CNC(=O)c2cccc3c2cnn3-c2ccc(F)cc2)c(F)c1 [1-(4-Fluoro-phenyl)-1H-indazole-4-carboxylic acid 2-fluoro-4-methylsulfamoyl-benzylamide]
25 | COc1cc(CNC(=O)c2cccc3c2cnn3-c2ccc(F)cc2)cc(OC)c1 [1-(4-Fluoro-phenyl)-1H-indazole-4-carboxylic acid 3,5-dimethoxy-benzylamide]
76 | O=C(NCc1cccc(Br)c1)c1cccc2c1cnn2-c1ccc(F)cc1 [1-(4-Fluoro-phenyl)-1H-indazole-4-carboxylic acid 3-bromo-benzylamide]
110 | CC(=O)NCCNS(=O)(=O)c1ccc(CNC(=O)c2cccc3c2cnn3-c2ccc(F)cc2)cc1 [1-(4-Fluoro-phenyl)-1H-indazole-4-carboxylic acid 4-(2-acetylamino-ethylsulfamoyl)-benzylamide]
9.2 | O=C(NCc1ccc(S(=O)(=O)NCCO)cc1)c1cccc2c1cnn2-c1ccc(F)cc1 [1-(4-Fluoro-phenyl)-1H-indazole-4-carboxylic acid 4-(2-hydroxy-ethylsulfamoyl)-benzylamide]
10 | COCCNS(=O)(=O)c1ccc(CNC(=O)c2cccc3c2cnn3-c2ccc(F)cc2)cc1 [1-(4-Fluoro-phenyl)-1H-indazole-4-carboxylic acid 4-(2-methoxy-ethylsulfamoyl)-benzylamide]
23 | CN(C)C1CCN(S(=O)(=O)c2ccc(CNC(=O)c3cccc4c3cnn4-c3ccc(F)cc3)cc2)CC1 [1-(4-Fluoro-phenyl)-1H-indazole-4-carboxylic acid 4-(4-dimethylamino-piperidine-1-sulfonyl)-benzylamide]
55 | CC(C)NS(=O)(=O)Cc1ccc(CNC(=O)c2cccc3c2cnn3-c2ccc(F)cc2)cc1 [1-(4-Fluoro-phenyl)-1H-indazole-4-carboxylic acid 4-(isopropylsulfamoyl-methyl)-benzylamide]
14 | O=C(NCc1ccc(S(=O)(=O)N2CCOCC2)cc1)c1cccc2c1cnn2-c1ccc(F)cc1 [1-(4-Fluoro-phenyl)-1H-indazole-4-carboxylic acid 4-(morpholine-4-sulfonyl)-benzylamide]
20 | O=C(NCc1ccc(S(=O)(=O)NC2CCOCC2)cc1)c1cccc2c1cnn2-c1ccc(F)cc1 [1-(4-Fluoro-phenyl)-1H-indazole-4-carboxylic acid 4-(tetrahydro-pyran-4-ylsulfamoyl)-benzylamide]
44 | CN1CCC(N(C)S(=O)(=O)c2ccc(CNC(=O)c3cccc4c3cnn4-c3ccc(F)cc3)cc2)CC1 [1-(4-Fluoro-phenyl)-1H-indazole-4-carboxylic acid 4-[methyl-(1-methyl-piperidin-4-yl)-sulfamoyl]-benzylamide]
120 | N#Cc1cc(CNC(=O)c2cccc3c2cnn3-c2ccc(F)cc2)ccn1 [1-(4-Fluoro-phenyl)-1H-indazole-4-carboxylic acid (2-cyano-pyridin-4-ylmethyl)-amide]
22 | COc1cc(CNC(=O)c2cccc3c2cnn3-c2ccc(F)cc2)ccn1 [1-(4-Fluoro-phenyl)-1H-indazole-4-carboxylic acid (2-methoxy-pyridin-4-ylmethyl)-amide]
14 | CC(NC(=O)c1cccc2c1cnn2-c1ccc(F)cc1)c1cccc(C(F)(F)F)c1 (stereo not drawn) [1-(4-Fluoro-phenyl)-1H-indazole-4-carboxylic acid [1-(3-trifluoromethyl-phenyl)-ethyl]-amide]
19 | CCC[C@H](NC(=O)c1cccc2c1cnn2-c1ccc(F)cc1)c1cccc(Br)c1 [1-(4-Fluoro-phenyl)-1H-indazole-4-carboxylic acid [(S)-1-(3-bromo-phenyl)-butyl]-amide]
28 | CNS(=O)(=O)c1ccc(CNC(=O)c2cc(S(C)(=O)=O)cc3c2cnn3-c2ccc(F)cc2)cc1 [1-(4-Fluoro-phenyl)-6-methanesulfonyl-1H-indazole-4-carboxylic acid 4-methylsulfamoyl-benzylamide]
20 | CNS(=O)(=O)c1ccc(CNC(=O)c2cc(C)cc3c2cnn3-c2ccc(F)cc2)cc1 [1-(4-Fluoro-phenyl)-6-methyl-1H-indazole-4-carboxylic acid 4-methylsulfamoyl-benzylamide]
2 | CS(=O)(=O)c1cccc(CNC(=O)c2cc(C#N)cc3c2cnn3-c2ccc(F)cc2)c1 [6-Cyano-1-(4-fluoro-phenyl)-1H-indazole-4-carboxylic acid 3-methanesulfonyl-benzylamide]
18 | CN1CCC(NS(=O)(=O)c2ccc(CNC(=O)c3cc(C#N)cc4c3cnn4-c3ccc(F)cc3)cc2)CC1 [6-Cyano-1-(4-fluoro-phenyl)-1H-indazole-4-carboxylic acid 4-(1-methyl-piperidin-4-ylsulfamoyl)-benzylamide]
1.5 | CN1CCN(S(=O)(=O)c2ccc(CNC(=O)c3cc(C#N)cc4c3cnn4-c3ccc(F)cc3)cc2)CC1 [6-Cyano-1-(4-fluoro-phenyl)-1H-indazole-4-carboxylic acid 4-(4-methyl-piperazine-1-sulfonyl)-benzylamide]
5.1 | CN1CCC(N(C)S(=O)(=O)c2ccc(CNC(=O)c3cc(C#N)cc4c3cnn4-c3ccc(F)cc3)cc2)CC1 [6-Cyano-1-(4-fluoro-phenyl)-1H-indazole-4-carboxylic acid 4-[methyl-(1-methyl-piperidin-4-yl)-sulfamoyl]-benzylamide]
0.3 | CNS(=O)(=O)c1ccc(CNC(=O)c2cc(C#N)cc3c2cnn3-c2ccc(F)cc2)cc1 [6-Cyano-1-(4-fluoro-phenyl)-1H-indazole-4-carboxylic acid 4-methylsulfamoyl-benzylamide]
21 | N#Cc1cc(C(=O)NCc2ccc(Br)nc2)c2cnn(-c3ccc(F)cc3)c2c1 [6-Cyano-1-(4-fluoro-phenyl)-1H-indazole-4-carboxylic acid (6-bromo-pyridin-3-ylmethyl)-amide]
7.1 | CS(=O)(=O)c1ccc(CNC(=O)c2cc(C#N)cc3c2cnn3-c2ccc(F)cc2)cn1 [6-Cyano-1-(4-fluoro-phenyl)-1H-indazole-4-carboxylic acid (6-methanesulfonyl-pyridin-3-ylmethyl)-amide]
4.4 | CS(=O)(=O)Nc1ccc(CNC(=O)c2cc(C#N)cc3c2cnn3-c2ccc(F)cc2)cn1 [6-Cyano-1-(4-fluoro-phenyl)-1H-indazole-4-carboxylic acid (6-methanesulfonylamino-pyridin-3-ylmethyl)-amide]
140 | CCOC(=O)COc1cc(CNC(=O)c2cccc3c2cnn3-c2ccc(F)cc2)ccn1 [[4-({[1-(4-Fluoro-phenyl)-1H-indazole-4-carbonyl]-amino}-methyl)-pyridin-2-yloxy]-acetic acid ethyl ester]

What follows are compounds tested against T1, CCR1 (assay: Calcium flux in response to MIP-1 alpha in CCR1-transfected cells, Method B (Calcium 4 dye, […] FDSS6000)). Conditions: cells stably expressing recombinant CCR1 and G-alpha-16; MIP-1 alpha at EC80; 30 minutes at 37 C then 30 minutes at room temperature.
Type: cell-based
Procedure: as §1
Method B: Non-adherent cells purchased from Chemicon Corporation (HTS005C), stably expressing recombinant CCR1 and G-alpha-16 are grown in RPMI 1640 medium (Mediatech 10-080-CM) supplemented with 10% FBS, 0.4 mg/mL Geneticin and penicillin/streptomycin. On the day of the assay, the cells are loaded with Calcium 4 dye (Molecular Devices R7448) with Probenecid (Invitrogen P346400) at 8E5 cells/mL for 1 hour at room temperature. After 1 hour, they are seeded in a 384-well tissue culture-treated plate at a density of 20,000 cells/well. Appropriately diluted test compound is added to the well to achieve a top concentration of 3,000 nM (diluted 4-fold with 10 doses total). The final concentration of DMSO is 1%. The buffer is HBSS (Invitrogen 14025) with 20 mM HEPES at pH 7.4. The cells incubate 30 minutes at 37 C and then 30 minutes at room temperature. The plates are transferred to the […] FDSS6000 where MIP-1 alpha in 1% BSA is added at the EC80 final concentration. All plates must be read within 4 hours of the start of dye-loading. Wells +/−MIP-1alpha containing diluted DMSO instead of compound serve as the controls. Data are analyzed using Activity Base software.

IC50 [nM] | Structure (SMILES)
2 | CC[C@H](NC(=O)c1cccc2c1cnn2-c1ccc(F)cc1)c1ccc(S(C)(=O)=O)nc1 [1-(4-Fluoro-phenyl)-1H-indazole-4-carboxylic acid [(S)-1-(6-methanesulfonyl-pyridin-3-yl)-propyl]-amide]
23 | CC[C@H](NC(=O)c1cc(Br)cc2c1cnn2-c1ccc(F)cc1)c1ccc(S(C)(=O)=O)nc1 [6-Bromo-1-(4-fluoro-phenyl)-1H-indazole-4-carboxylic acid [(S)-1-(6-methanesulfonyl-pyridin-3-yl)-propyl]-amide]
